Source: US20060079550A1, “Amino acid derivatives useful for the treatment of alzheimer's disease” (priority 2001, published 2006)

These molecules were tested against aspartyl proteases, in particular, beta-secretase (assay: Ki of the compounds listed in Tables 1 and 2 (no method described)). Settings: Table 1, compounds of formula Ia, W is -(CH2)n-.
Assay type: biochemical

| Compound | Ki |
| --- | --- |
| O=C(N[C@@H](CCCCNS(=O)(=O)Cc1ccccc1)C(=O)O)OCC1c2ccccc2-c2ccccc21 [Compound No. 33, Nε-phenylmethylsulfonyl-Nα-(9-fluorenylmethoxycarbonyl)-L-lysine] | 20 µM |
| O=C(N[C@@H](CCCCNS(=O)(=O)c1cccc(C(F)(F)F)c1)C(=O)O)OCC1c2ccccc2-c2ccccc21 [Compound No. 34, Nε-(3-trifluoromethylbenzenesulfonyl)-Nα-(9-fluorenylmethoxycarbonyl)-L-lysine] | 22 µM |
| CC1(C)[C@@H]2CC[C@@]1(CS(=O)(=O)NCCCC[C@H](NC(=O)OCC1c3ccccc3-c3ccccc31)C(=O)O)C(=O)C2 [Compound No. 35, Nε-(1S)-(10-camphorsulfonyl)-Nα-(9-fluorenylmethoxycarbonyl)-L-lysine] | 33 µM |
| O=C(N[C@@H](CCCCNS(=O)(=O)c1ccc(Br)cc1)C(=O)O)C(c1ccccc1)c1ccccc1 [Compound No. 36, Nα-(diphenylacetyl)-Nε-(4-bromobenzenesulfonyl)-L-lysine] | 24 µM |
| O=C(O)[C@H](CCCCNS(=O)(=O)c1ccc(Br)cc1)NC(=O)C(O)(c1ccccc1)c1ccccc1 [Compound No. 37, Nα-(diphenylhydroxyacetyl)-Nε-(4-bromobenzenesulfonyl)-L-lysine] | 54 µM |
| O=C(N[C@@H](CCCCNS(=O)(=O)c1ccc(Br)cc1)C(=O)O)C1c2ccccc2-c2ccccc21 [Compound No. 38, Nα-(9-fluorenecarbonyl)-Nε-(4-bromobenzenesulfonyl)-L-lysine] | 4.7 µM |
| Cc1ccc(S(=O)(=O)N(Cc2ccccc2)[C@@H](CCCCNC(=O)OCC2c3ccccc3-c3ccccc32)C(=O)O)cc1 [Compound No. 40, Nα-benzyl-Nα-(4-methylbenzenesulfonyl)-Nε-(9-fluorenylmethoxycarbonyl)-L-lysine] | 0.0196 µM |
| CC(C)CN(CCC[C@H](NC(=O)OCC1c2ccccc2-c2ccccc21)C(=O)O)S(=O)(=O)c1ccc(Br)cc1 [Compound No. 41, Nα-(9-fluorenylmethoxycarbonyl)-Nδ-isobutyl-Nδ-(4-bromobenzenesulfonyl)-L-ornithine] | > 50 µM |
| Cc1cc(C)c(S(=O)(=O)N(CC(C)C)[C@@H](CCCCNC(=O)OCC2c3ccccc3-c3ccccc32)C(=O)O)c(C)c1 [Compound No. 42, Nα-isobutyl-Nα-(2,4,6-trimethylbenzenesulfonyl)-Nε-(9-fluorenylmethoxycarbonyl)-L-lysine] | > 0.1 µM |
| Cc1ccc(S(=O)(=O)N(CC2CC2)[C@@H](CCCCNC(=O)OCC2c3ccccc3-c3ccccc32)C(=O)O)cc1 [Compound No. 43, Nα-cyclopropylmethyl-Nα-(4-methylbenzenesulfonyl)-Nε-(9-fluorenylmethoxycarbonyl)-L-lysine] | 0.0039 µM |
| CC(C)CN([C@@H](CCCCNC(=O)OCC1c2ccccc2-c2ccccc21)C(=O)O)S(=O)(=O)c1ccc(N)cc1 [Compound No. 44, Nα-(4-aminobenzenesulfonyl)-Nα-isobutyl-Nε-(9-fluorenylmethoxycarbonyl)-L-lysine] | 0.0021 µM |
| CC(C)CN(C(=O)c1ccccc1)[C@@H](CCCCNC(=O)OCC1c2ccccc2-c2ccccc21)C(=O)O [Compound No. 46, Nα-isobutyl-Nα-benzoyl-Nε-(9-fluorenylmethoxycarbonyl)-Llysine] | > 0.1 µM |
| O=C(N[C@@H](CCCCNS(=O)(=O)c1ccccc1)C(=O)O)OCC1c2ccccc2-c2ccccc21 [Compound No. 49, Nε-benzenesulfonyl-Nα-(9-fluorchylmethoxycarbonyl)-L-lysine] | 8.9 µM |
| O=C(N[C@@H](CCCCNS(=O)(=O)c1ccc([N+](=O)[O-])cc1)C(=O)O)OCC1c2ccccc2-c2ccccc21 [Compound No. 50, Nε-(4-nitrobenzenesulfonyl)-Nα-(9-fluorenylmethoxycarbonyl)-L-lysine] | 6 µM |
| Nc1ccc(S(=O)(=O)NCCCC[C@H](NC(=O)OCC2c3ccccc3-c3ccccc32)C(=O)O)cc1 [Compound No. 52, Nε-(4-aminobenzenesulfonyl)-Nα-(9-fluorenylmethoxycarbonyl)-L-lysine] | 6.8 µM |
| O=C(N[C@@H](CCCCNS(=O)(=O)c1ccc(Cl)cc1)C(=O)O)OCC1c2ccccc2-c2ccccc21 [Compound No. 53, Nε-(4-chlorobenzenesulfonyl)-Nα-(9-fluorenylmethoxycarbonyl)-L-lysine] | 4.8 µM |
| O=C(N[C@@H](CCCCNS(=O)(=O)c1cc(Cl)ccc1Cl)C(=O)O)OCC1c2ccccc2-c2ccccc21 [Compound No. 54, Nε-(2,5-dichlorobenzenesulfonyl)-Nα-(9-fluorenylmethoxycarbonyl)-L-lysine] | > 6.25 µM |
| O=C(N[C@@H](CCCCNS(=O)(=O)c1ccc(F)cc1)C(=O)O)OCC1c2ccccc2-c2ccccc21 [Compound No. 55, Nε-(4-fluorobenzenesulfonyl)-Nα-(9-fluorenylmethoxycarbonyl)-L-lysine] | 6.5 µM |
| O=C(O)[C@H](CCCNS(=O)(=O)c1ccc(Br)cc1)NS(=O)(=O)c1ccc(Br)cc1 [Compound No. 57, Nα,Nε-di-(4-bromobenzenesulfonyl)-L-ornithine] | 42.4 µM |

| Compound | Ki |
| --- | --- |
| O=C(O)[C@H](CCCN(Cc1ccc(F)cc1)S(=O)(=O)c1ccc(Br)cc1)NS(=O)(=O)c1ccc(Br)cc1 [Compound No. 59, Nα,Nδ-di-(4-bromobenzenesulfonyl)-Nδ-(4-fluorobenzyl)-L-ornithine] | > 34.9 µM |
| O=C(O)[C@H](CCCCN(Cc1ccc(F)cc1)S(=O)(=O)c1ccc(Br)cc1)NS(=O)(=O)c1ccc(Br)cc1 [Compound No. 60, Nα,Nε-di-(4-bromobenzenesulfonyl)-Nε-(4-fluorobenzyl)-L-lysine] | > 50 µM |
| O=C(N[C@@H](CCCNS(=O)(=O)c1ccc([N+](=O)[O-])cc1)C(=O)O)OCC1c2ccccc2-c2ccccc21 [Compound No. 62, Nδ-(4-nitrobenzenesulfonyl)-Nα-(9-fluorenylmethoxycarbonyl)-L-ornithine] | 26.2 µM |
| O=C(N[C@@H](CCCCNS(=O)(=O)c1ccc(I)cc1)C(=O)O)OCC1c2ccccc2-c2ccccc21 [Compound No. 64, Nε-(4-iodobenzenesulfonyl)-Nα-(9-fluorenylmethoxycarbonyl)-L-lysine] | 19.2 µM |
| O=C(N[C@@H](CCCCNS(=O)(=O)c1ccc(Br)cc1)C(=O)O)c1ccccc1 [Compound No. 65, Nα-benzoyl-Nε-(4-bromobenzenesulfonyl)-L-lysine] | > 50 µM |
| O=C(NCCCC[C@H](NS(=O)(=O)c1ccc(Br)cc1)C(=O)O)OCC1c2ccccc2-c2ccccc21 [Compound No. 66, Nα-(4-bromobenzenesulfonyl)-Nε-(9-fluorenylmethoxycarbonyl)-L-lysine] | 1.9 µM |
| Cc1ccc(S(=O)(=O)N(CC(C)C)[C@@H](CCCCNC(=O)OCC2c3ccccc3-c3ccccc32)C(=O)O)cc1 [Compound No. 67, Nα-isobutyl-Nα-(4-methylbenzenesulfonyl)-Nε-(9-fluorenylmethoxycarbonyl)-L-lysine] | 0.0043 µM |
| Nc1ccc(S(=O)(=O)NCCC[C@H](NC(=O)OCC2c3ccccc3-c3ccccc32)C(=O)O)cc1 [Compound No. 69, Nδ-(4-aminobenzenesulfonyl)-Nα-(9-fluorenylmethoxycarbonyl)-L-ornithine] | 23.8 µM |
| O=C(NCCCC[C@H](NS(=O)(=O)c1ccccc1[N+](=O)[O-])C(=O)O)OCC1c2ccccc2-c2ccccc21 [Compound No. 70, Nα-(2-nitrobenzenesulfonyl)-Nε-(9-fluorenylmethoxycarbonyl)-L-lysine] | > 12.5 µM |
| O=C(NCCCC[C@H](NC(=O)OCC1c2ccccc2-c2ccccc21)C(=O)O)OCC1c2ccccc2-c2ccccc21 [Compound No. 71, Nα,Nε-di-(9-fluorenylmethoxycarbonyl)-L-lysine] | 44.8 µM |
| O=C(NCCCC[C@H](NS(=O)(=O)c1ccc(Cl)cc1)C(=O)O)OCC1c2ccccc2-c2ccccc21 [Compound No. 72, Nα-(4-chlorobenzenesulfonyl)-Nε-(9-fluorenylmethoxycarbonyl)L-lysine] | 2.39 µM |
| O=C(NCCC[C@H](NC(=O)OCC1c2ccccc2-c2ccccc21)C(=O)O)OCC1c2ccccc2-c2ccccc21 [Compound No. 73, NαNδ-di-(9-fluorenylmethoxycarbonyl)-L-ornithine] | 1.3 µM |
| Cc1ccc(S(=O)(=O)N(CC(C)C)[C@@H](CCCCNC(=O)OCc2ccccc2)C(=O)OCc2ccccc2)cc1 [Compound No. 75, Nα-isobutyl-Nα-(4-methylbenzenesulfonyl)-Nε-benzyloxycarbonyl-L-lysine Benzyl Ester] | > 1.25 µM |
| CC(C)CN([C@@H](CCCCNC(=O)OCc1ccccc1)C(=O)OCc1ccccc1)S(=O)(=O)c1ccc([N+](=O)[O-])cc1 [Compound No. 78, Nα-isobutyl-Nα-(4-nitrobenzenesulfonyl)-Nε-benzyloxycarbonyl-L-lysine Benzyl Ester] | > 1.25 µM |
| CC(C)CN([C@@H](CCCCNC(=O)CCc1ccccc1)C(=O)O)S(=O)(=O)c1ccc([N+](=O)[O-])cc1 [Compound No. 94, Nα-isobutyl-Nα-(4-nitrobenzenesulfonyl)-Nε-dihydrocinnamoyl-L-lysine] | 0.0339 µM |
| CC(C)CN([C@@H](CCCCNC(=O)CCc1c[nH]c2ccccc12)C(=O)O)S(=O)(=O)c1ccc([N+](=O)[O-])cc1 [Compound No. 95, Nα-isobutyl-Nα-(4-nitrobenzenesulfonyl)-Nε-(3-indolepropionyl)-L-lysine] | 0.0334 µM |
| CC(C)CN([C@@H](CCCCNC(=O)C1c2ccccc2Oc2ccccc21)C(=O)O)S(=O)(=O)c1ccc([N+](=O)[O-])cc1 [Compound No. 96, Nα-isobutyl-Nα-(4-nitrobenzenesulfonyl)-Nε-(9xanthenecarbonyl)-L-lysine] | 0.0439 µM |
| CC(C)CN([C@@H](CCCCNC(=O)CCc1c[nH]c2ccccc12)C(=O)O)S(=O)(=O)c1ccc(N)cc1 [Compound No. 98, Nα-isobutyl-Nα-(4-aminobenzenesulfonyl)-Nε-(3-indolepropionyl)-L-lysine] | 0.0101 µM |
| O=C(NCCCC[C@H](NS(=O)(=O)c1cccc2ccccc12)C(=O)O)OCC1c2ccccc2-c2ccccc21 [Compound No. 102, Nα-(1-naphthalenesulfonyl)-Nε-(9-fluorenylmethoxycarbonyl)-L-lysine] | 2.32 µM |
